Patent US20160367623A1, “AGONISTS OF GUANYLATE CYCLASE USEFUL FOR THE TREATMENT OF GASTROINTESTINAL DISORDERS, INFLAMMATION, CANCER AND OTHER DISORDERS” (priority 2015, published 2016)
Bridge positions count the residues as written; N and C are the ends. Ends that are not written are not given here.

Test system: patients with chronic idiopathic constipation (CIC)
Assay: Second phase 3 CIC trial: change from baseline in stool consistency (BSFS)
Type: in vivo, human
Conditions: 6 mg
[1] = Post-Treatment Week 14, ITT Population-Excluding Duplicate Patients
[2] = Week 1, All Randomized (includes Duplicate Patients)
[3] = Week 1, ITT Population-Excluding Duplicate Patients
[4] = Week 2, All Randomized (includes Duplicate Patients)
[5] = Week 2, ITT Population-Excluding Duplicate Patients
[6] = Week 3, All Randomized (includes Duplicate Patients)
[7] = Week 3, ITT Population-Excluding Duplicate Patients
[8] = Week 4, All Randomized (includes Duplicate Patients)
[9] = Week 4, ITT Population-Excluding Duplicate Patients
[10] = Week 5, All Randomized (includes Duplicate Patients)
[11] = Week 5, ITT Population-Excluding Duplicate Patients
[12] = Week 6, All Randomized (includes Duplicate Patients)
[13] = Week 6, ITT Population-Excluding Duplicate Patients
[14] = Week 7, All Randomized (includes Duplicate Patients)
[15] = Week 7, ITT Population-Excluding Duplicate Patients
[16] = Week 8, All Randomized (includes Duplicate Patients)
[17] = Week 8, ITT Population-Excluding Duplicate Patients

With “Asn^1-Asp^2-Glu^3-Cys^4-Glu^5-Leu^6-Cys^7-Val^8-Asn^9-Val^10-Ala^11-Cys^12-Thr^13-Gly^14-Cys^15-Leu^16 (NDECELCVNVACTGCL; disulfide 4-12, 7-15) [Plecanatide, uroguanylin analogue, guanylate cyclase-C agonist; (C4:C12, C7:C15) bicycle peptide]” the “Change from Baseline in Stool Consistency, LS Mean (SE)” value (“Change from Baseline … (SE)” for short) [1] was 1.07 (0.074), the “Change from Baseline in Stool Consistency, Mean (SD)” value (from here on “Change from Baseline … (SD)”) [1] was 1.05 (1.358) and the “Change from Baseline in Stool Consistency, Difference from Placebo” value (“Change from Baseline … Difference from Placebo” below) [2] was 0.84. The “Change from Baseline … (SE)” value [2] was 1.41 (0.071), the “Change from Baseline … (SD)” value [2] was 1.43 (1.501) and the “Change from Baseline … Difference from Placebo” value (Week 1, ITT Population) was 0.84. For the same substance, the “Change from Baseline … (SE)” value (Week 1, ITT Population) was 1.44 (0.073), the “Change from Baseline … (SD)” value (Week 1, ITT Population) was 1.45 (1.501) and the “Change from Baseline … Difference from Placebo” value [3] was 0.86. For the same substance, the “Change from Baseline … (SE)” value [3] was 1.47 (0.073), the “Change from Baseline … (SD)” value [3] was 1.47 (1.495) and the “Change from Baseline … Difference from Placebo” value [4] was 0.67. For the same substance, the “Change from Baseline … (SE)” value [4] was 1.36 (0.071), the “Change from Baseline … (SD)” value [4] was 1.36 (1.560) and the “Change from Baseline … Difference from Placebo” value (Week 2, ITT Population) was 0.68. For the same substance, the “Change from Baseline … (SE)” value (Week 2, ITT Population) was 1.39 (0.073), the “Change from Baseline … (SD)” value (Week 2, ITT Population) was 1.38 (1.560) and the “Change from Baseline … Difference from Placebo” value [5] was 0.68. For the same substance, the “Change from Baseline … (SE)” value [5] was 1.41 (0.074), the “Change from Baseline … (SD)” value [5] was 1.39 (1.562) and the “Change from Baseline … Difference from Placebo” value [6] was 0.53. For the same substance, the “Change from Baseline … (SE)” value [6] was 1.41 (0.072), the “Change from Baseline … (SD)” value [6] was 1.44 (1.479) and the “Change from Baseline … Difference from Placebo” value (Week 3, ITT Population) was 0.54. The “Change from Baseline … (SE)” value (Week 3, ITT Population) was 1.44 (0.074), the “Change from Baseline … (SD)” value (Week 3, ITT Population) was 1.46 (1.480) and the “Change from Baseline … Difference from Placebo” value [7] was 0.55. The “Change from Baseline … (SE)” value [7] was 1.46 (0.074), the “Change from Baseline … (SD)” value [7] was 1.47 (1.485) and the “Change from Baseline … Difference from Placebo” value [8] was 0.54. The “Change from Baseline … (SE)” value [8] was 1.41 (0.071), the “Change from Baseline … Difference from Placebo” value (Week 4, ITT Population) was 0.52 and the “Change from Baseline … (SE)” value (Week 4, ITT Population) was 1.42 (0.074). For the same substance, the “Change from Baseline … (SD)” value (Week 4, ITT Population) was 1.42 (1.603), the “Change from Baseline … Difference from Placebo” value [9] was 0.53 and the “Change from Baseline … (SE)” value [9] was 1.44 (0.074). For the same substance, the “Change from Baseline … (SD)” value [9] was 1.42 (1.608), the “Change from Baseline … Difference from Placebo” value [10] was 0.67 and the “Change from Baseline … (SE)” value [10] was 1.52 (0.072). The “Change from Baseline … Difference from Placebo” value (Week 5, ITT Population) was 0.68, the “Change from Baseline … (SE)” value (Week 5, ITT Population) was 1.55 (0.074) and the “Change from Baseline … (SD)” value (Week 5, ITT Population) was 1.57 (1.594). The “Change from Baseline … Difference from Placebo” value [11] was 0.69, the “Change from Baseline … (SE)” value [11] was 1.58 (0.075) and the “Change from Baseline … (SD)” value [11] was 1.58 (1.598). The “Change from Baseline … Difference from Placebo” value [12] was 0.70, the “Change from Baseline … (SE)” value [12] was 1.51 (0.072) and the “Change from Baseline … Difference from Placebo” value (Week 6, ITT Population) was 0.72. The “Change from Baseline … (SE)” value (Week 6, ITT Population) was 1.55 (0.074), the “Change from Baseline … (SD)” value (Week 6, ITT Population) was 1.57 (1.517) and the “Change from Baseline … Difference from Placebo” value [13] was 0.74. For the same substance, the “Change from Baseline … (SE)” value [13] was 1.57 (0.075), the “Change from Baseline … (SD)” value [13] was 1.58 (1.520) and the “Change from Baseline … Difference from Placebo” value [14] was 0.64. For the same substance, the “Change from Baseline … (SE)” value [14] was 1.50 (0.072), the “Change from Baseline … Difference from Placebo” value (Week 7, ITT Population) was 0.64 and the “Change from Baseline … (SE)” value (Week 7, ITT Population) was 1.54 (0.074). For the same substance, the “Change from Baseline … (SD)” value (Week 7, ITT Population) was 1.56 (1.540), the “Change from Baseline … Difference from Placebo” value [15] was 0.67 and the “Change from Baseline … (SE)” value [15] was 1.56 (0.075). The “Change from Baseline … (SD)” value [15] was 1.57 (1.544), the “Change from Baseline … Difference from Placebo” value [16] was 0.57 and the “Change from Baseline … (SE)” value [16] was 1.48 (0.072). For the same substance, the “Change from Baseline … Difference from Placebo” value (Week 8, ITT Population) was 0.58, the “Change from Baseline … (SE)” value (Week 8, ITT Population) was 1.51 (0.074) and the “Change from Baseline … (SD)” value (Week 8, ITT Population) was 1.53 (1.539). The “Change from Baseline … Difference from Placebo” value [17] was 0.60, the “Change from Baseline … (SE)” value [17] was 1.53 (0.075) and the “Change from Baseline … (SD)” value [17] was 1.54 (1.543). The “Change from Baseline … Difference from Placebo” value (Week 9, All Randomized (includes Duplicate Patients)) was 0.67.
